Assays:
A-549 cells = assay: Mechanical scratch wound assay in A-549 cell monolayer; format: cell-based
Method: (A) Mechanical scratch wounds were generated in a monolayer of A-549 cells, and 30 hours later, the area of the wound was evaluated by custom computer-based software. At 0, 4, 9, and 24 hour post wounding, cells received fresh medium with 5 uM of NO-Cbl, Deta-NONOate, sodium nitroprusside (SNP), or fresh medium alone. (B) The normalized average wound area was determined by dividing the final wound area by the initial wound area and averaging replicates. Data represent the mean+/−SEM of at least 3 separate experiments with an n=12 in each experiment.

U2OS cells = format: cell-based, human
Method: U2OS human osteosarcoma cells were obtained from the American Type Tissue Culture Collection (ATCC, Rockville, Md.). Cells were grown in T-75 flasks (Corning, Fisher, Pittsburgh, Pa.) in a 37° C., 5% CO2/95% air incubator using Dulbecco's Modified Eagle's Medium (DMEM) and supplemented with 10% fetal bovine serum (Mediatach, Manassas, Va.). Cells were trypsinized with TrypLE (Invitrogen Life Technologies, Carsbad, Calif.), seeded into 6-well or 96-well plates (Corning, Fisher, Pittsburgh, Pa.) and grown to confluence.
Cells were exposed to LLLT for 30 min and 1 h later received a single treatment of 5 μM NO-Cbi.
The scratch wound closure assay has been previously described (see Spitler et al., Nitrosyl-cobinamide (NO-Cbi), a new nitric oxide donor, improves wound healing through cGMP/cGMP-dependent protein kinase, Cell Signal 2013, 25(12):2374-2382). Briefly 600-700 μm wide single line scratches were mechanically generated in a cell monolayer by a 200 μl plastic tip across the length of the well. Cells from both edges of the wound migrated into the open area, which was measured at 24 h. The change in area was quantified using a custom Mat Lab script. The wound closure rate was determined by plotting changes in the wound area as a function of time.

Erk1/2 = assay: Western blot analysis of phospho-Erk1/2 in U2OS cells; format: cell-based, human
Method: Cells were lysed and harvested 10 min after LLLT treatment in Laemmli buffer heated to 100° C. (BioRad, Hercules, Calif.), and lysates were sonicated and resolved on SDS-PAGE gels. The proteins were transferred to a nitrocellulose membrane (GE Healthcare Life Sciences, Pittsburgh) and blocked for 1 h with Pierce Protein-Free Blocking buffer (Thermo Scientific, Rockford, Ill.). They were incubated overnight with antibodies for phospho-ERK1/2(Thr202/Tyr203) at 1:10,000 in TBS/5% BSA (Cell Signaling Technology). Membranes were then incubated with an anti-rabbit-HRP antibody at 1:2000 for 1 h and developed using a luminol-based chemiluminescent substrate.

[1] = test system: lung epithelial cells, primary human lung fibroblasts, cancer cell model; assay: In vitro wound healing in several different cell systems; format: cell-based
Source text: . The inventors established this optimal dose range in order to provide a reasonable dose for actual treatment of airway injury. Mechanistically, the inventors determined that improved wound healing was from increased cell migration and not cell proliferation (division). […]

Substance: nitrosyl-cobinamide [NO-Cbi]
- effectiveness on a molar basis compared with other NO donors (A-549 cells): more effective than two other NO donors
- wound healing and migration (normalized wound area) (A-549 cells): increases wound healing and migration
- wound healing (normalized wound area at 24 h) (U2OS cells): enhance wound healing
- wound healing, combination with LLLT (U2OS cells): markedly enhanced wound healing compared to either treatment alone
- Erk1/2 activation (phosphorylation) (Erk1/2): increased Erk1/2 activation
- Erk1/2 activation, combination with LLLT (Erk1/2): same degree of Erk1/2 activation as NO-Cbi alone
- in vitro wound healing [1]: improved in vitro wound healing

— patent US10272096B2, “Methods and systems of treating wounds” (priority 2013, dated 2019)
